Source: patent EP4745134A1 (Jiangsu Yahong Meditech Co., Ltd., priority 2023, dated 2025)
Like-named read-outs stand apart in the source and are kept apart here.

Columns and labels:
[1] = tested on: HCT116-WT cells; test: Inhibitory activity against cell proliferation (CellTiter Glo, 6 days), HCT116-WT; assay type: cell-based; conditions: HCT116-WT cells, 6 days, CellTiter Glo, read-out: HCT116-WT IC50
Experimental: (§1) HCT116-WT (ATCC, CCL-247) and HCT116 MTAP KO (Nanjing Cobioer, CBP75002) cells were seeded into white low-transparency sterile 96-well cell culture plates at a density of 250 cells per well respectively, and the culture medium was McCoy's 5A Medium+10% FBS. The plates were placed under the condition of 37°C and 5% CO2 to be cultured overnight. The cells were treated with 4-fold serially diluted compounds of 8 concentration points starting at an initial concentration of 10000 nM, and the last two columns were used as control wells to which only DMSO was added. The drug-treated cells were further cultured for 6 days. On day 7, CellTiter Glo® reagent was added at 50 uL per well, and after reaction under shaking for 10 minutes at room temperature, the chemiluminescence signals were detected for the well plates through the chemiluminescence detection method using a BIOTEK H1 multifunctional microplate-reader. The IC50 values for inhibition of the compounds on cell viability were calculated in X1fit 5.0 software. Table 2. IC50 values for inhibition of the compounds on HCT116 MTAP KO/WT cell growth

[2] = tested on: HCT116 MTAP KO cells; test: Inhibitory activity against cell proliferation (CellTiter Glo, 6 days), HCT116 MTAP KO; assay type: cell-based; conditions: for IC50: HCT116 MTAP KO cells, 6 days, CellTiter Glo, read-out: HCT116 MTAP KO IC50; for Selectivity HCT 116-WT/ HCT116 MTAP KO: ratio of IC50 HCT116-WT / HCT116 MTAP KO
Experimental: as §1

[3] = molecular target: PRMT5-MTA (Homo sapiens, UniProt O14744); test: Enzymatic inhibitory activity against PRMT5-MTA (AlphaScreen); assay type: biochemical; conditions: read-out: IC50
Chain of PRMT5-MTA (O14744 whole entry): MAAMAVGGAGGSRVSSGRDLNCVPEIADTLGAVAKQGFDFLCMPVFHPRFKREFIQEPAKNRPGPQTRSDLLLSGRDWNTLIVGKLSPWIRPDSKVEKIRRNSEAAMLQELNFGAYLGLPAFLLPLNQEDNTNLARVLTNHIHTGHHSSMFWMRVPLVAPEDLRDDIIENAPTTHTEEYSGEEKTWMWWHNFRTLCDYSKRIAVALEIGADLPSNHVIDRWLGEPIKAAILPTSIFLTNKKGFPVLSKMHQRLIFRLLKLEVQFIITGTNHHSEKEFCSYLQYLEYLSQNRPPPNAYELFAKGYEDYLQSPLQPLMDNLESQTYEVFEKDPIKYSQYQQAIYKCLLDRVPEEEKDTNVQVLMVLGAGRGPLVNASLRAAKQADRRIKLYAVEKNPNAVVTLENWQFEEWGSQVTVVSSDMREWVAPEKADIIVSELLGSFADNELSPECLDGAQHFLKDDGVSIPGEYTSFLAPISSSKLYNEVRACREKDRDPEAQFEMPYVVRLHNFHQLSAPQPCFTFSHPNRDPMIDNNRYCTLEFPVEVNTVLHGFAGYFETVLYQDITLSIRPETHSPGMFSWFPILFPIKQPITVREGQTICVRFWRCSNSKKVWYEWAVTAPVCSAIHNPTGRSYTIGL
Chain of PRMT5-MTA (Q9BQA1 whole entry partner): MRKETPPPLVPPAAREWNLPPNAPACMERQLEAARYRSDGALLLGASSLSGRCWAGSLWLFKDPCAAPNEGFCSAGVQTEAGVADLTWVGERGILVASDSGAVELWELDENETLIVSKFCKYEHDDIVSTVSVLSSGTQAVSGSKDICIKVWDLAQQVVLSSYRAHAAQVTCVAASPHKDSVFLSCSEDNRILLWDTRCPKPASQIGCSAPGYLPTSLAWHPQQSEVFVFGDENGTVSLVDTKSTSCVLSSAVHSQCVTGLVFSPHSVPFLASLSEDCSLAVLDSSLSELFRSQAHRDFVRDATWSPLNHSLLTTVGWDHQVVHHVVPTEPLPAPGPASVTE
Summary of the method: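 PRMT5/[…] (1 nM) was preincubated for 30 min at room temperature with 1 µM […] and 2.5 µM SAM, then exposed to compound (10-point, 3-fold from 1000 nM) for 15 min at 23 °C. Histone H4 substrate (5 nM) was added and reacted for 45 min at 23 °C. Symmetric dimethyl-R3 H4 was detected by AlphaScreen and IC50 calculated.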

SMILES | IC50 ([1]; 144 h) [nM] | IC50 ([2]; Homo sapiens, HCT-116, 144 h) [nM] | Selectivity HCT 116-WT/ HCT116 MTAP KO [2] | IC50 [1] [nM] | IC50 [2] [nM] | IC50 [3] [nM]
CC1CN(C(=O)c2cc3c(cc2F)nc(N)c2cnn(C)c23)N(c2ncccc2F)C1 (single isomer, unassigned) [Example 467] | 3040 | 94 | 32.33 |  |  | 
Cc1cc2cc(C(=O)N(Cc3ccc(-c4ccc(N(C)C5CCC5)nc4)cn3)N(C)c3ncccn3)ccc2nc1N [Compound 261, 2-amino-N-((6'-(cyclobutyl(methyl)amino)-[3,3'-bipyridin]-6-yl)methyl)-N',3-dim ethyl-N'-(pyrimidin-2-yl)quinoline-6-carb ohydrazide] | 684 | 40 | 17.10 |  |  | 
Cc1cc2cc(C(=O)N(Cc3ccc(C(F)(F)F)cn3)n3ccc4ccccc43)ccc2nc1N [Example 28, 2-amino-N-(1H-indol-1-yl)-3-methyl-N-((5-(trifluoromethyl)pyridin-2-yl)methyl)quinoline-6-carboxamide] | 2530 | 139 | 18.22 |  |  | 
CC1OCc2c1c(N)nc1ccc(C(=O)N(Cc3ccc(C(F)(F)F)cn3)N(C)c3ncccn3)cc21 (stereo not shown) [Example 70, 4-amino-N',3-dimethyl-N'-(pyrimidin-2-yl)-N-((5-(trifluoromethyl)pyridin-2-yl)methyl)-1,3-dihydrofuro[3,4-c]quinoline-8-carbohydrazide] | 222 | 21 | 10.57 |  |  | 
CN(c1ncccc1F)N(Cc1ccc(C(F)(F)F)cn1)C(=O)c1ccc2nc(N)c3cnn(C)c3c2c1 [Example 74, 4-amino-N'-(3-fluoropyridin-2-yl)-N ',1-dimethyl-N-((5-(trifluoromethyl)pyridin-2-yl)methyl)-1H-pyrazolo[4,3-c]quinoline-8-carbohydrazide] | 90 | 4.4 | 20.45 |  |  | 
CN(c1ncccn1)N(Cc1ccc(C(F)(F)F)cn1)C(=O)c1ccc2nc(N)c(Cl)cc2c1 [Example 105, 2-amino-3-chloro-N'-methyl-N'-(pyrimidin-2-yl)-N-((5-(trifluoromethyl)pyridin-2-yl)methyl)quinoline-6-carbohydrazide] | 3950 | 202 | 19.56 |  |  | 
Cc1cc2cc(C(=O)N(Cc3ccc(-c4cc[nH]c(=O)c4)cn3)N(C)c3ncccn3)ccc2nc1N [Example 138, 2-amino-N',3-dimethyl-N-((2'-oxo-1',2'-dihydro-[3,4'-bipyridine]-6-yl)methyl)-N'-(pyrimidin-2-yl)quinoline-6-carbohydrazide] | 3420 | 290 | 11.79 |  |  | 
Cc1cc2cc(C(=O)N(Cc3ccc(-c4ccc(=O)[nH]c4)cn3)N(C)c3ncccn3)ccc2nc1N [Example 143, 2-amino-N',3-dimethyl-N-((6'-oxo-1',6'-dihydro-[3,3'-bipyridine]-6-yl)methyl)-N'-(pyrimidin-2-yl)quinoline-6-carbohydrazide] | 3360 | 192 | 17.49 |  |  | 
Cc1csc(-c2ccc(CN(C(=O)c3ccc4nc(N)c(C)cc4c3)N(C)c3ncccn3)nc2)c1 [Example 146, 2-amino-N',3-dimethyl-N-((5-(4-methylthien-2-yl)pyridin-2-yl)methyl)-N'-(pyrimidin-2-yl)quinoline-6-carbohydrazide] | 1190 | 75 | 15.85 |  |  | 
Cc1cc2cc(C(=O)N(Cc3ccc(-c4cnc5nn(C)cc5c4)cn3)N(C)c3ncccn3)ccc2nc1N [Example 150, 2-amino-N',3-dimethyl-N-((5-(2-methyl-2H-pyrazolo[3,4-b]pyridin-5-yl)pyridin-2-yl)methyl)-N'-(pyrimidin-2-yl)quinoline-6-carbohydrazide] | 708 | 29 | 24.41 |  |  | 
Cc1cc2cc(C(=O)N(Cc3ccc(-c4cnn(C(F)(F)F)c4)cn3)N(C)c3ncccc3F)ccc2nc1N [Example 170, 2-amino-N'-(3-fluoropyridin-2-yl)-N ',3-dimethyl-N-((5-(1-(trifluoromethyl)-1 H-pyrazol-4-yl)pyridin-2-yl)methyl)quin oline-6-carbohydrazide] | 640 | 35 | 18.29 |  |  | 
Cc1cc2cc(C(=O)N(Cc3ccc(-c4cnoc4)cn3)N(C)c3ncccn3)ccc2nc1N [Example 182, 2-amino-N-((5-(isoxazol-4-yl)pyridin-2-yl)methyl)-N',3-dimethyl-N'-(pyrimidin-2-yl)quinoline-6-carbohydrazide] | 3390 | 131 | 25.89 |  |  | 
Cc1cc2cc(C(=O)N(Cc3ccc(-c4cnc5c(cnn5C)c4)cn3)N(C)c3ncccn3)ccc2nc1N [Example 190, 2-amino-N',3-dimethyl-N-((5-(1-methyl-1H-pyrazolo[3,4-b]pyridin-5-yl)pyridin-2-yl)methyl)-N'-(pyrimidin-2-yl)quinoline-6-carbohydrazide] | 835 | 32 | 26.09 |  |  | 
Cc1cc2cc(C(=O)N(Cc3ccc(-c4cn(C)cn4)cn3)N(C)c3ncccn3)ccc2nc1N [Example 194, 2-amino-N',3-dimethyl-N-((5-(1-methyl-1H-imidazol-4-yl)pyridin-2-yl)methyl)-N '-(pyrimidin-2-yl)quinoline-6-carbohydrazide] | 4230 | 257 | 16.46 |  |  | 
Cc1cc2cc(C(=O)N(Cc3ccc4sc(C5=CCN(C)CC5)nc4c3)N(C)c3ncccn3)ccc2nc1N [Example 195, 2-amino-N',3-dimethyl-N-((2-(1-methyl-1,2,3,6-tetrahydropyridin-4-yl)benzo[d]thiazol-5-yl)methyl)-N'-(pyrimidin-2-yl)qui noline-6-carbohydrazide] | 3140 | 216 | 14.53 |  |  | 
Cc1cc2cc(C(=O)N(Cc3ccc(-c4cnc5c(cnn5C)c4)cn3)N(C)c3ncccn3)ccc2nc1N [Example 198, 2-amino-N',3-dimethyl-N-((5-(1-methyl-1H-pyrazolo[3,4-b]pyridin-5-yl)pyridin-2-yl)methyl)-N'-(pyrimidin-2-yl)quinoline-6-carbohydrazide] |  |  | 26.09 | 835 | 32 | 
Cc1cc2cc(C(=O)N(Cc3ccc(-c4cncs4)cn3)N(C)c3ncccn3)ccc2nc1N [Example 204, 2-amino-N',3-dimethyl-N'-(pyrimidin-2-yl)-N-((5-(thiazol-5-yl)pyridin-2-yl)methyl)quinoline-6-carbohydrazide] | 396 | 14 | 28.29 |  |  | 
Cc1cc2nc(N)c3cnn(C)c3c2cc1C(=O)N1CCCN1c1ccc(C(F)(F)F)nc1 [Example 329, (4-amino-1,7-dimethyl-1H-pyrazolo[4,3-c]quinolin-8-yl)(2-(6-(trifluoromethyl)pyridin-3-yl)pyrazolidin-1-yl)methanone] |  | 831 |  |  |  | 3.4
Cc1cc2nc(N)c3cnn(C)c3c2cc1C(=O)N1CCCN1c1ncccn1 [Example 332, (4-amino-1,7-dimethyl-1H-pyrazolo[4,3-c]quinolin-8-yl)(2-(pyrimidin-2-yl)pyrazolidin-1-yl)methanone] |  | 405 |  |  |  | 6
Nc1nc2ccc(C(=O)N3CCCN3c3ccc(C(F)(F)F)cn3)cc2c2c1COC2 [Example 341, (4-amino-1,3-dihydrofuro[3,4-c]quinolin-8-yl)(2-(5-(trifluoromethyl)pyridin-2-yl)pyrazolidin-1-yl)methanone] |  | > 10000 |  |  |  | 4.7
Cc1cc2nc(N)c3cnn(C)c3c2cc1C(=O)N1CCCN1c1ccc(F)cn1 [Example 344, (4-amino-1,7-dimethyl-1H-pyrazolo[4,3-c]quinolin-8-yl)(2-(5-fluoropyridin-2-yl)pyrazolidin-1-yl)methanone] |  | 458 |  |  |  | 4.7
Cc1cc2nc(N)c3cnn(C)c3c2cc1C(=O)N1CCCN1c1ccccn1 [Example 349, (4-amino-1,7-dimethyl-1H-pyrazolo[4,3-c]quinolin-8-yl)(2-(pyridin-2-yl)pyrazolidin-1-yl)methanone] |  | 458 |  |  |  | 6.1
Cc1cc2nc(N)c3cnn(C)c3c2cc1C(=O)N1C(C)CCN1c1ncccc1F (stereo not shown) [Example 375, (4-amino-1,7-dimethyl-1H-pyrazolo[4,3-c]quinolin-8-yl)(2-(3-fluoropyridin-2-yl)-5-methylpyrazolidin-1-yl)methanone] |  |  |  |  | 280 | 2.5
CC1CN(C(=O)c2cc3c4c(c(N)nc3cn2)COC4)N(c2ncccc2F)C1 (stereo not shown) [Example 511, (4-amino-1,3-dihydrofuro[3,4-c][1,7]naphthyridin-8-yl)(2-(3-fluoropyridin-2-yl)-4-methylpyrazolidin-1-yl)methanone] |  |  |  |  |  | 6.1
